Laboratory results taken from patent US20140005181A1, “SMALL MOLECULE ANTAGONISTS OF THE APELIN RECEPTOR FOR THE TREATMENT OF DISEASE” (Sanford-Burnham Medical Research Institute, priority 2012, published 2014).
Several values for one entry are separate records, joined by “and”; a condition that tells them apart may be missing. Equal values may be shown once. Read-outs that look alike come from different tables or passages of the source.

Experiments:
[1] = Hepatic toxicity / cytotoxicity; conditions: human, hepatocytes
human hepatocytes = experiment: Hepatic toxicity / cytotoxicity; conditions: Table 1
[2] = tested on: benzodiazepinone receptors; experiment: PDSP GPCR binding assay panel
[3] = Hepatic microsome stability, mouse
kappa opioid receptor = biological target: T1, kappa opioid receptor (Homo sapiens, UniProt P41145); experiment: PDSP GPCR binding assay panel
T1 construct: Psychoactive Drug Screening Program (PDSP), University of North Carolina
T1 sequence (P41145 whole entry): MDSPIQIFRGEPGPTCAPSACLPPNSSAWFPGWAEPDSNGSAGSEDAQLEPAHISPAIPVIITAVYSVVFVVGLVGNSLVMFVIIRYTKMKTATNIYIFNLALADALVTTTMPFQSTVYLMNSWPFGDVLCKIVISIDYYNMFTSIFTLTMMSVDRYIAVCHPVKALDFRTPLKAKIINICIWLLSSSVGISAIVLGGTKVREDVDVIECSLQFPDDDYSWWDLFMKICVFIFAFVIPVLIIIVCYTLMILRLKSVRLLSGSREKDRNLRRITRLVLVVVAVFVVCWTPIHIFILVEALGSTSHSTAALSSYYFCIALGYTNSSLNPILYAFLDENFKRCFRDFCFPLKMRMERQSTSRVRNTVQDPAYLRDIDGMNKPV

Plasma stability, human = format: in vitro ADME; conditions: Plasma:1x PBS pH 7.4 1:1, 3 hrs
APJ = biological target: T2, APJ (Homo sapiens, UniProt P35414); experiment: APJ receptor internalization assay; format: cell-based; conditions: fixed apelin-13 6.23 nM
T2 sequence (P35414 1-380): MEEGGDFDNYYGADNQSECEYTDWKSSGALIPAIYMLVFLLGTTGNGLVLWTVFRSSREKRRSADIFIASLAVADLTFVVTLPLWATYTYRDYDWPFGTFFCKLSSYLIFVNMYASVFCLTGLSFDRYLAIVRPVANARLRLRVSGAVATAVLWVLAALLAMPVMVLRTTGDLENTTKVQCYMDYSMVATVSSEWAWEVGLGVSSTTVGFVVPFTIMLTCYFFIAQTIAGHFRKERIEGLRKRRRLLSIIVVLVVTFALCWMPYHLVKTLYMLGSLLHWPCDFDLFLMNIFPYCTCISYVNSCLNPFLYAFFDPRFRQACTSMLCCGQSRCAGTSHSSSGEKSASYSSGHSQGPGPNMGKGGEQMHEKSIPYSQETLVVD
Method: This graph depicts the mean percent inhibition (±SEM) of apelin-13 mediated receptor internalization. Representative of an experiment that was repeated three times with each data point performed in triplicate. Curve fit analysis was performed using nonlinear regression with a 4-point logistic fit (GraphPad Prism5).

[4] = Hepatic microsome stability, human
PAMPA permeability = format: in vitro ADME; conditions: for Papp: PAMPA, read-out: PAMPA Pe
Method: The PAMPA (Parallel Artificial Membrane Permeability Assay) assay is used as an in vitro model of passive, transcellular permeability. An artificial membrane immobilized on a filter is placed between a donor and acceptor compartment. At the start of the test, drug is introduced in the donor compartment. Following the permeation period, the concentration of drug in the donor and acceptor compartments is measured using UV spectroscopy.

[5] = Stability in 1x PBS pH 7.4 (plasma stability assay); format: physicochemical; conditions: 1x PBS pH 7.4, 3 hrs

For `O=C(Oc1coc(CSc2ncccn2)cc1=O)c1ccc([N+](=O)[O-])cc1` [Compound 6, 4-OXO-6-((PYRIMIDIN-2-YLTHIO)METHYL)-4H-PYRAN-3-YL-4-NITROBENZOATE], the CC50 [1] was > 50 µM, the Cytotoxicity (human hepatocytes) was >50 µM and the “Plasma Stability (% Remaining @3 hrs)” value (Plasma stability, mouse; Mouse, Plasma:1x PBS pH 7.4 1:1, 3 hrs) was 0.88%. For the same compound, the “Plasma Stability” value (Plasma stability, mouse; Table 1, species and matrix not given) was 42.2%, the “binding activity at benzodiazepinone receptors” value [2] was “significant activity” and the “Hepatic Microsome Stability” value ([3]; Table 1, species not given, equals the mouse value) was 4.9%. For the same compound, the “Hepatic Microsome Stability Mouse” value ([3]; mouse) was 4.89, the “% remaining at 60 min in mouse liver homogenates” value ([3]; mouse, 60 min) was 4.9% and the “Plasma Protein Binding (mouse)” value (Plasma protein binding; mouse) was 99.1%. For the same compound, the “detection in the plasma protein binding assay” value (Plasma protein binding; species not given, 18 h incubation) was “undetectable”, the “binding activity at kappa opioid receptor” value (kappa opioid receptor) was “significant activity” and the solubility (Aqueous solubility; 1x PBS, pH 7.4, aqueous buffer) was 3.6 µg/mL and 9.3 µM. For the same compound, the “Aqueous Solubility pH 7.4” value (Aqueous solubility; Table 1, pH 7.4) was 25.5 μg/mL, the solubility (Aqueous solubility; aqueous media, pH 5, aqueous buffer) was 3 µg/mL and 7.8 µM and the solubility (Aqueous solubility; aqueous media, pH 6.2, aqueous buffer) was 3.6 µg/mL and 9.3 µM. The solubility (Aqueous solubility; aqueous media, pH 7.4, aqueous buffer) was 9.8 µg/mL and 25 µM, the “Plasma Stability (% Remaining @3 hrs)” value (Plasma stability, human) was 0.26% and the “antagonism of apelin-13 induced APJ receptor internalization” value (APJ) was “antagonized the ability of apelin-13 to induce APJ receptor internalization”. The “Hepatic Microsome Stability Human” value ([4]; Human) was 4.19, the “% remaining at 60 min in human liver homogenates” value ([4]; human, 60 min) was 4.2% and the “PAMPA Pe (×10^−6 cm/s)” value (PAMPA permeability; Donor pH 7.4, Acceptor pH 7.4) was 271 ×10^−6 cm/s. For the same compound, the Papp (PAMPA permeability; Donor pH 5.0, Acceptor pH 7.4) was 195 ×10⁻⁶ cm/s, the Papp (PAMPA permeability; Donor pH 6.2, Acceptor pH 7.4) was 240 ×10⁻⁶ cm/s and the “Permeability (PAMPA) pH 7.4” value (PAMPA permeability; Table 1, pH 7.4) was 271.0 × 10^−6 cm/s. The “Plasma Stability (% Remaining @3 hrs), 1x PBS pH 7.4” value ([5]; first value (Human position)) was 46.97% and the “Plasma Stability (% Remaining @3 hrs), 1x PBS pH 7.4” value ([5]; second value (Mouse position)) was 42.18%.
